Measured values reported in patent US20220394981A1, “MICRONUTRIENT FORMULATIONS THAT CONTROL PLANT PATHOGENS” (priority 2021, published 2022).
Where two headings read alike, the source gives them in different places.

Assays:
[1] = cited from earlier work
[2] = cited from earlier work; remark: listed apart in the source
[3] = cited from earlier work; remark: listed apart in the source
[4] = cited from earlier work; remark: listed apart in the source
[5] = cited from earlier work; remark: listed apart in the source
[6] = cited from earlier work; remark: listed apart in the source
[7] = test system: CLas bacteria; assay type: in vivo, Ruby red grapefruit trees
Procedure: (§1) Experimental testing was performed at the Florida Research Center for Agricultural Sustainability (“FLARES”) in Vero Beach, Fla. where the inventor, Robert C. Adair, Jr. serves as the executive director after having founded FLARES in 2004. Testing was conducted on a uniform block of ninety-six (96) Ruby red grapefruit trees planted on Dec. 19, 2018 grafted with USDA “US-897” citrus rootstock. The red grapefruit trees were randomly assigned one of eight (8) treatments in twelve (12) replicated plots using a Randomized Complete Block (“RCB”) design to help ensure homogeneous conditions between test subject trees. The red grapefruit trees were treated using liquid formulations applied to the foliage, the soil proximal to the rhizosphere of the plant, or applied to both the foliage and the soil. The micronutrient chelate formulations were applied monthly, the citric acid treatments were applied weekly, and the iron nitrate treatment was applied every two weeks.
(§2) Before being treated, the red grapefruit trees were allowed time to establish root systems. The red grapefruit trees were exposed to infection of the CLas bacteria through native populations of the Asian citrus psyllid insect, which is the vector that spreads citrus greening disease among trees. The caliper, canopy diameter, and height for each grapefruit tree was measured prior to treatment and subsequently measured every six (6) to nine (9) months thereafter for the two-and-half (2.5) year duration of the experiment.
Individual leaf samples were collected from each of the ninety-six (96) trees and submitted to Southern Gardens Diagnostic Laboratory in Clewiston, Fla. for Polymerase Chain Reaction (“PCR”) analysis to determine the presence of CLas bacteria DNA. The results were expressed cycle threshold (“Ct”) values, and the logarithm of the copy number per milligram of tissue values were recorded and statistically evaluated. In a PCR analysis, a positive reaction is detected by the accumulation of a fluorescent signal. The Ct value is defined as the number of cycles required for a fluorescent signal to cross a threshold (i.e., exceeds background levels). Ct values are inversely proportional to the amount of a target nucleic acid in the sample being tested such that the lower the Ct level, the greater the amount of target nucleic acid in the sample. Ct values less than 29 are considered strong positive reactions indicative of an abundance of the target nucleic acid, and Ct values of 38-40 are indicative of minimal amounts of target nucleic acid.

[8] = test system: Ruby red grapefruit trees; test: Tree growth versus untreated control, field trial; details: in vivo
Procedure: as §1
Before being treated, the red grapefruit trees were allowed time to establish root systems. […] The caliper, canopy diameter, and height for each grapefruit tree was measured prior to treatment and subsequently measured every six (6) to nine (9) months thereafter for the two-and-half (2.5) year duration of the experiment.
Canopy areas were determined from aerial images captured by a camera-equipped unmanned aerial vehicle (“UAV”). […]

[9] = test system: citrus greening disease; assay type: in vivo, Ruby red grapefruit trees; details: for Percentage of Trees Showing HLB Leaf Patterns: 270 days after the first treatment application
Procedure: as §1, §2
Tree condition was scored visually according to the disease indexing (“DI”) technique taught by Gottwald, Aubert, and Xue-Yuan. See Gottwald, T. R., B. Aubert, and Z. Xue-Yuan, Preliminary Analysis of Citrus Greening (Huanglungbin) Epidemics in the People's Republic of China and French Reunion Island, PHYTOPATHOLOGY Vol. No. 79: 687-693 (1989). Disease indexing techniques divide an image of a plant into multiple sections and/or subsections, such as hemispheres and quadrants, and assign each image section a score from zero to four. The score reflects the observable severity of disease impact on a plant with a score of four indicating a plant with no visible symptoms and a score of zero indicating the highest level of severity. The score for all sections of a plant image are added together to establish an overall DI score for a particular plant image, such that a healthy vigorous tree with no symptoms has a DI of 16.
Table 5 below presents data from the visual inspection of the red grapefruit trees for the symptoms of citrus greening disease measured at 270 days after the first treatment application or approximately half way through the experiment.

[10] = treatments applied as in Table 1 (foliar and/or soil)
[11] = treatments applied as in Table 1 (foliar and/or soil), listed as Fe(III)EDDHA

Molecule | LogK Mn2+ (stability constant) [1] | LogK Zn2+ (stability constant) [2] | LogK Ca2+ (stability constant) [3] | LogK Fe2+ (stability constant) [4] | LogK Fe3+ (stability constant) [5] | LogK Cu2+ (stability constant) [6] | other results
O=C(O)CN(CCN(CC(=O)O)CC(=O)O)CCN(CC(=O)O)CC(=O)O [DTPA, diethylenetriaminepentaacetic acid] | 15.1 | 18.3 | 10.7 | 16.5 | 28.6 | 21.1 | –
O=C(O)[C@H](O)[C@@H](O)[C@H](O)[C@H](O)CO [Gluconate] | – | 1.7? | 1.2 | 1.0 | 10.0 | 36.0 | –
O=C([O-])C(NCCNC(C(=O)[O-])c1ccccc1[O-])c1ccccc1[O-].[Fe+3].[Na+] (centres unmarked) [Fe-EDDHA] | – | – | – | – | 35.40 | – | % of PCR Analysis Showing No CLas (Ct values = 40) [7, 10]: 50%; Average Ct values based on qPCR analysis of citrus leaves [7, 10]: 34.9; Log Copy #/1 mg of Leaf Tissue [7, 10]: 1.2; % of PCR Analysis Showing No CLas (Ct values = 40) [7, 11]: highest percentage; Average Ct values based on qPCR analysis of citrus leaves [7, 11]: highest Ct values; Log Copy #/1 mg of Leaf Tissue [7, 11]: the lowest; tree growth versus an untreated control [8]: increased tree growth; Percentage of Trees Showing HLB Leaf Patterns ([9]; treatments as in Table 1): 10%; Percentage of Trees Showing HLB Leaf Patterns ([9]; treatments as in Table 1, listed as Fe(III)EDDHA): lowest percentage of observable symptoms; symptoms of citrus greening disease, visually and analytically (CLas bacteria by PCR) ([9]; foliar and soil application): reduced the symptoms of citrus greening disease; citrus greening disease leaf symptoms, visual inspection ([9]; infected grapefruit trees): reduced
O=C(O)[C@@H](O)[C@@H](O)[C@H](O)[C@@H](O)C(=O)O [Saccharate] | 8.5 | – | – | – | 24.5 | 14.0 | –
O=C(O)CN(CCN(CC(=O)O)Cc1ccccc1O)Cc1ccccc1O [HBED, N,N′-bis(2-hydroxyphenyl)ethylenediamine-N,N′-diacetic acid] | 16.5 | 18.3 | 9.3 | 17.3 | 39.0 | 21.4 | –
O=C(O)CN(CCN(CC(=O)O)CC(=O)O)CC(=O)O [EDTA] | 13.6 | 16.5 | 10.7 | – | 25.1 | 18.8 | –
O=C(O)CC(NC(CC(=O)O)C(=O)O)C(=O)O (centres unmarked) [IDHA, imidodisuccinic acid] | 7.7 | 10.8 | – | – | 15.2 | 13.1 | –
O=C(O)CN(CCO)CCN(CC(=O)O)CC(=O)O [HEEDTA] | 10.7 | 14.5 | 8.0 | 12.2 | 19.6 | 17.4 | –
Iron Citrate | – | – | – | 3.2 | – | – | % of PCR Analysis Showing No CLas (Ct values = 40) ([7]; at 30 ppm Fe, foliar): 0%; Average Ct values based on qPCR analysis of citrus leaves ([7]; at 30 ppm Fe, foliar): 29.7; Log Copy #/1 mg of Leaf Tissue ([7]; at 30 ppm Fe, foliar): 2.6; % of PCR Analysis Showing No CLas (Ct values = 40) ([7]; at 60 ppm Fe, foliar): 0%; Average Ct values based on qPCR analysis of citrus leaves ([7]; at 60 ppm Fe, foliar): 31.2; Log Copy #/1 mg of Leaf Tissue ([7]; at 60 ppm Fe, foliar): 2.1; Percentage of Trees Showing HLB Leaf Patterns ([9]; at 30 ppm Fe, foliar): 44%; Percentage of Trees Showing HLB Leaf Patterns ([9]; at 60 ppm Fe, foliar): 50%
O=C(O)CC(O)(CC(=O)O)C(=O)O [Citrate] | 3.7 | 4.9 | 4.7 | 3.2 | 11.85 | 5.9 | –
O=C(O)CN(CCO)CCN(CC(=O)O)CC(=O)O [HEDTA] | 11.1 | 14.6 | 8.1 | 12.2 | 19.7 | 17.4 | –
